Measurements reported in patent publication US20250188077A1, “CRYSTAL FORM OF 1H-PYRROLO[2,3-C]PYRIDINE COMPOUND AND PREPARATION METHOD THEREFOR” (JUMBO DRUG BANK CO., LTD., priority 2022, published 2025).
Where two headings read alike, the source gives them in different places.

Columns and labels:
[1] = Solid stability test (XRPD crystal form after storage); type: physicochemical
From the text: The samples placed at high temperature and humidity were sampled for XRPD testing on the 10th and 30th day; The samples exposed to light were put into a clean surface dish, laid into a thin layer, covered with a quartz glass cover, and sampled for XRPD testing on the 5th and 10th days; For the long-term test and accelerated test (shading), each sample were put into a double-layer LDPE bag, each layer of LDPE bag was respectively buckled and sealed, and then the LDPE bag was put into an aluminum foil bag with a package of desiccant and heat sealed. The samples were respectively placed at 25° C./60% RH, 30° C./65% RH and 40° C./75% RH for exploration, the test results were compared with the initial test results of 0 day and the test results were shown in Table 7 below.

[2] = Hygroscopicity study by dynamic vapor sorption (DVS); type: physicochemical; details: 80% RH/25° C.
Procedure: Instrument model: SMS DVS Intrinsic dynamic vapor sorption instrument
Test conditions: The sample (10 mg) was taken and placed in a DVS sample plate for testing.
Detailed DVS parameters were as follows:
Drying: 25° C., 0% RH drying for 2 hours
Range of Rh (%) test step: 0%-95%-0% RH
SMS DVS intrinsic dynamic vapor adsorption instrument
A sample (10 mg) was taken and placed in a DVS sample plate for testing.

BCR-FMS-BaF3 cells = assay: CellTiter-Glo luminescent cell viability / cell proliferation assay; type: cell-based; details: for IC50: 72 h, BCR-FMS-BaF3, 3 days incubation
From the text: Luminescent Cell Viability Assay (CellTiter-Glo® methold) from Promega was used for cell proliferation detection. CellTiter-Glo® Luminescent Cell Viability Assay (CellTiter-Glo® luminescent cell viability detection kit) was a homogeneous rapid detection method for detecting the viability of living cells in culture by quantitative determination of ATP. ATP was an indicator of the metabolism of living cells. Cell lysis and the resulting light signal were proportional to the amount of present ATP, and the amount of ATP is directly proportional to the number of living cells in the culture. The higher the fluorescence reading indicated the higher ATP content in the cell and also the higher the cell viability. Therefore, the inhibition degree of compound on cell proliferation can be monitored by fluorescence value. 1) The compound was diluted 2 mM with 100% DMSO, that is, 5 μL of 10 mM compound storage solution was taken and put into the first column of 96-well compound plate, then 20 μL of 100% DMSO were added and mixed well; 2) 20 μL of 100% DMSO was added to the second column to the tenth column of 96-well compound plate; 3) 5 μL of compound was taken from the first column to the second column and mixed well, and then 5 μL of compound was taken from the second column to the third column and mixed well. The above steps were repeated to the ninth column to complete the gradient dilution of the compound; 4) Preparation of compound working solution: 2 μL of compound per well from the second column of the compound plate was taken to a new 96 well compound plate, and 78 μL of cell culture medium per well was added; 2 μL of 100% DMSO from the negative control well was taken and 78 μL of cell culture medium was added; and 5) The compound concentration was the final concentration, in which the blank control well was the culture medium well without cells, and the negative control was 0.5% DMSO. 1) The BCR-FMS-BaF3 cell suspension was collected and centrifuged at 1000 rpm (revolutions per minute) for 5 minutes. The supernatant was removed, cells were resuspended with preheated medium and counted. After counting, the cell suspension was diluted with cell culture medium to the required density. Each well was inoculated with 80 μL cell suspension into 96 well cell culture plate. 2) On the day of the experiment, 20 μL of compound working solution was added to the cell plate and incubated for 3 days at 37° C. in a 5% CO2 incubator. [table] 3) After the incubation is completed, 20 μL of CTG detection reagent was added to each well of the cell plate, and incubated at 25° C. for 10 minutes. After the incubation is completed, EnVision was used for luminescence signal detection. […]

[3] = Solid stability test (XRPD crystal form after storage); type: physicochemical; details: 40° C./75% RH(open)

Crystal form (XRPD) ([1]; 0 days (initial)): crystal form B
Crystal form (XRPD) ([1]; 25° C./60% RH, 3 M): crystal form B
Crystal form (XRPD) ([1]; 25° C./60% RH, 6 M): crystal form B
Crystal form (XRPD) ([1]; 25° C./60% RH, 24 M): crystal form B
Crystal form (XRPD) ([1]; 30° C./65% RH, 1 M): crystal form B
Crystal form (XRPD) ([1]; 30° C./65% RH, 3 M): crystal form B
Crystal form (XRPD) ([1]; 30° C./65% RH, 6 M): crystal form B
Crystal form (XRPD) ([1]; high humidity (25° C./relative humidity 92.5%, open), 10 days): crystal form B
Crystal form (XRPD) ([1]; high humidity (25° C./relative humidity 92.5%, open), 30 days): crystal form B
Crystal form (XRPD) ([1]; high temperature (60° C., open), 10 days): crystal form B
Crystal form (XRPD) ([1]; high temperature (60° C., open), 30 days): crystal form B
Solid stability (conclusion) ([1]; influencing factors, light, acceleration and long-term experimental conditions): good stability
Crystal form (XRPD) ([1]; strong light (5000 lx and UV intensity 90 w/cm^2, open), 5 days): crystal form B
Crystal form (XRPD) ([1]; strong light (5000 lx and UV intensity 90 w/cm^2, open), 10 days): crystal form B
Classification of hygroscopicity [2]: slight hygroscopicity
ΔW (hygroscopic weight gain) ([2]; DVS): 0.28%
IC50 (BCR-FMS-BaF3 cells; mean of N = 1 and N = 2, read-out: IC50 (nM) Mean value ± SD): 2.46 ± 0.008 nM
IC50 (BCR-FMS-BaF3 cells; replicate N = 1, read-out: IC50 (nM) N = 1): 2.46 nM
IC50 (BCR-FMS-BaF3 cells; replicate N = 2, read-out: IC50 (nM) N = 2): 2.47 nM
Crystal form (XRPD) ([3]; 1 M): crystal form B
Crystal form (XRPD) ([3]; 3 M): crystal form B
Crystal form (XRPD) ([3]; 6 M): crystal form B
Structure (SMILES): CNC(=O)c1nccc2c(-c3cnc(Nc4ccc(OC5CC5)nc4)cc3C)c[nH]c12.Cl
Inhibition of proliferation of BCR-FMS-BaF3 cells (conclusion in words) (BCR-FMS-BaF3 cells; BCR-FMS-BaF3 cells): significantly inhibit the proliferation
